Experimental data from patent US20110306639A1, “HYDROCARBYLIDENE NITROHYDROZINECARBOXIMIDAMIDES AND A METHOD FOR MAKING THE SAME, AS WELL AS THEIR USES AS AN INSECTICIDE” (priority 2008, published 2011).
Read-outs that look alike come from different tables or passages of the source.

With C=CCNC(=N[N+](=O)[O-])NN=Cc1ccc(F)cc1 [Compound 101] as the compound, how does the “mortality(%) myzus persicae (600 μg/mL)” value (myzus persicae; in vivo) read?
Its value is 17.7%.

And the “mortality(%) Helicoverpa armigera (500 μg/mL)” value (Helicoverpa armigera; in vivo)?
The value was 40%.

What about the “mortality(%) asparagus caterpillar (500 μg/mL)” value (asparagus caterpillar; in vivo) of the same compound?
Its value is 30%.

How did the “mortality(%) myzus persicae (600 μg/mL)” value (myzus persicae; in vivo) turn out when C#CCNC(=N[N+](=O)[O-])NN=Cc1ccc(F)cc1 [Compound 102] was run?
Its value is 31.6%.

And the “mortality(%) Helicoverpa armigera (500 μg/mL)” value (Helicoverpa armigera; in vivo)?
The value was 50%.

And the “mortality(%) asparagus caterpillar (500 μg/mL)” value (asparagus caterpillar; in vivo)?
The value was 50%.

For Cc1ccc(C=NNC(=N[N+](=O)[O-])NCc2ccc(Cl)nc2)cc1 [Compound 107], which “mortality(%) myzus persicae (600 μg/mL)” value (myzus persicae; 600 μg/mL) is on record?
Its value is 3.7%.

And the “mortality(%) Helicoverpa armigera (500 μg/mL)” value (Helicoverpa armigera; 500 μg/mL, 48 hours)?
The value was 10%.

And the “mortality(%) asparagus caterpillar (500 μg/mL)” value (asparagus caterpillar; 500 μg/mL, 48 hours)?
Its value is 20%.

With O=[N+]([O-])N=C(NCc1ccc(Cl)nc1)NN=Cc1ccccc1 [Compound 110] as the compound, how does the “mortality(%) myzus persicae (600 μg/mL)” value (myzus persicae; 600 μg/mL) read?
The value was 92.8%.

What about the “mortality(%) bemisia tabaci gennadius (500 μg/mL)” value (bemisia tabaci gennadius; 500 μg/mL, 48 hours) of the same compound?
The value was 6.67%.

And the “mortality(%) Helicoverpa armigera (500 μg/mL)” value (Helicoverpa armigera; 500 μg/mL, 48 hours)?
Its value is 0%.

And the “mortality(%) asparagus caterpillar (500 μg/mL)” value (asparagus caterpillar; 500 μg/mL, 48 hours)?
The value was 30%.

With O=[N+]([O-])N=C(NCc1ccc(Cl)nc1)NN=Cc1ccccc1Cl [Compound 111] as the compound, how does the “mortality(%) myzus persicae (600 μg/mL)” value (myzus persicae; in vivo) read?
The value was 22.0%.

What about the “mortality(%) bemisia tabaci gennadius (500 μg/mL)” value (bemisia tabaci gennadius; in vivo) of the same compound?
Its value is 13.89%.

What about the “mortality(%) Helicoverpa armigera (500 μg/mL)” value (Helicoverpa armigera; in vivo) of the same compound?
The value was 0%.

What about the “mortality(%) asparagus caterpillar (500 μg/mL)” value (asparagus caterpillar; in vivo) of the same compound?
Its value is 40%.

With COc1ccc(C=NNC(=N[N+](=O)[O-])NCc2ccc(Cl)nc2)cc1 [Compound 112] as the compound, how does the “mortality(%) myzus persicae (600 μg/mL)” value (myzus persicae; in vivo) read?
Its value is 54.4%.

And the “mortality(%) bemisia tabaci gennadius (500 μg/mL)” value (bemisia tabaci gennadius; in vivo)?
Its value is 3.77%.

And the “mortality(%) Helicoverpa armigera (500 μg/mL)” value (Helicoverpa armigera; in vivo)?
Its value is 10%.

And the “mortality(%) asparagus caterpillar (500 μg/mL)” value (asparagus caterpillar; in vivo)?
The value was 90%.

O=[N+]([O-])N=C(NCc1ccc(Cl)nc1)NN=Cc1ccc(F)cc1 [Compound 114] was tested. Which “mortality(%) myzus persicae (600 μg/mL)” value (myzus persicae; in vivo) did it give?
The value was 72.3%.

What about the “mortality(%) bemisia tabaci gennadius (500 μg/mL)” value (bemisia tabaci gennadius; in vivo) of the same compound?
Its value is 2.04%.

And the “mortality(%) Helicoverpa armigera (500 μg/mL)” value (Helicoverpa armigera; in vivo)?
Its value is 40%.

And the “mortality(%) asparagus caterpillar (500 μg/mL)” value (asparagus caterpillar; in vivo)?
Its value is 70%.

How did the “mortality(%) myzus persicae (600 μg/mL)” value (myzus persicae; in vivo) turn out when O=[N+]([O-])N=C(NCc1ccc(Cl)nc1)NN=Cc1ccco1 [Compound 115] was run?
The value was 86.0%.

What about the “mortality(%) bemisia tabaci gennadius (500 μg/mL)” value (bemisia tabaci gennadius; in vivo) of the same compound?
The value was 9.30%.

What about the “mortality(%) Helicoverpa armigera (500 μg/mL)” value (Helicoverpa armigera; in vivo) of the same compound?
Its value is 10%.

And the “mortality(%) asparagus caterpillar (500 μg/mL)” value (asparagus caterpillar; in vivo)?
The value was 80%.

With CNC(=N[N+](=O)[O-])NN=Cc1ccccc1Cl [Compound 117] as the compound, how does the “mortality(%) bemisia tabaci gennadius (500 μg/mL)” value (bemisia tabaci gennadius; in vivo) read?
The value was 17.78%.

For CNC(=N[N+](=O)[O-])NN=Cc1cccc(Oc2ccccc2)c1 [Compound 118], which “mortality(%) bemisia tabaci gennadius (500 μg/mL)” value (bemisia tabaci gennadius; in vivo) is on record?
The value was 14.81%.

For CNC(=N[N+](=O)[O-])NN=Cc1ccccc1OC [Compound 119], which “mortality(%) bemisia tabaci gennadius (500 μg/mL)” value (bemisia tabaci gennadius; 500 μg/mL, 48 hours) is on record?
Its value is 72.00%.

For CNC(=N[N+](=O)[O-])NN=Cc1ccc(N(C)C)cc1 [Compound 120], which “mortality(%) bemisia tabaci gennadius (500 μg/mL)” value (bemisia tabaci gennadius; in vivo) is on record?
The value was 82.76%.

Which “mortality(%) bemisia tabaci gennadius (500 μg/mL)” value (bemisia tabaci gennadius; in vivo) does the source give for CNC(=N[N+](=O)[O-])NN=Cc1ccc(OC)cc1 [Compound 121] here?
The value was 16.95%.

CNC(=N[N+](=O)[O-])NN=Cc1ccc(F)cc1 [Compound 123] was tested. Which “mortality(%) bemisia tabaci gennadius (500 μg/mL)” value (bemisia tabaci gennadius; in vivo) did it give?
Its value is 4.69%.

For CNC(=N[N+](=O)[O-])NN=Cc1ccco1 [Compound 124], which “mortality(%) bemisia tabaci gennadius (500 μg/mL)” value (bemisia tabaci gennadius; in vivo) is on record?
Its value is 88.68%.

Which “mortality(%) bemisia tabaci gennadius (500 μg/mL)” value (bemisia tabaci gennadius; in vivo) does the source give for CCNC(=N[N+](=O)[O-])NN=Cc1ccccc1Cl [Compound 125] here?
Its value is 53.06%.

For CCNC(=N[N+](=O)[O-])NN=Cc1ccc(OCC)c(OC)c1 [Compound 126], which “mortality(%) bemisia tabaci gennadius (500 μg/mL)” value (bemisia tabaci gennadius; in vivo) is on record?
Its value is 6.67%.

How did the “mortality(%) bemisia tabaci gennadius (500 μg/mL)” value (bemisia tabaci gennadius; in vivo) turn out when CCNC(=N[N+](=O)[O-])NN=Cc1ccc(OC)cc1 [Compound 127] was run?
The value was 24.56%.

With CCNC(=N[N+](=O)[O-])NN=Cc1ccc(F)cc1 [Compound 129] as the compound, how does the “mortality(%) bemisia tabaci gennadius (500 μg/mL)” value (bemisia tabaci gennadius; in vivo) read?
The value was 8.62%.

CCCNC(=N[N+](=O)[O-])NN=Cc1ccc(OC)cc1 [Compound 130] was tested. Which “mortality(%) bemisia tabaci gennadius (500 μg/mL)” value (bemisia tabaci gennadius; in vivo) did it give?
The value was 18.46%.

How did the “mortality(%) bemisia tabaci gennadius (500 μg/mL)” value (bemisia tabaci gennadius; in vivo) turn out when COc1ccc(C=NNC(=N[N+](=O)[O-])NCc2ccccc2)cc1 [Compound 131] was run?
Its value is 1.89%.

For O=[N+]([O-])N=C(NCc1ccccc1)NN=Cc1ccc(F)cc1 [Compound 133], which “mortality(%) bemisia tabaci gennadius (500 μg/mL)” value (bemisia tabaci gennadius; in vivo) is on record?
The value was 3.77%.

Which “mortality(%) bemisia tabaci gennadius (500 μg/mL)” value (bemisia tabaci gennadius; in vivo) does the source give for CCOc1ccc(C=NNC(=N[N+](=O)[O-])NCc2ccc(Cl)nc2)cc1OC [Compound 134] here?
Its value is 1.82%.
